Legend:
Assay type in all cases: functional
MV4-11 = assay: Antiproliferative activity against human MV4-11 cells assessed as reduction in cell viability incubated for 72 hrs by resazurin dye based assay; conditions: MV4-11, 72 h
K562 = assay: Antiproliferative activity against human K562 cells assessed as reduction in cell viability incubated for 72 hrs by resazurin dye based assay; conditions: K562, 72 h
CCRF-CEM = assay: Antiproliferative activity against human CEM cells assessed as reduction in cell viability incubated for 72 hrs by resazurin dye based assay
KOPN-8 = assay: Antiproliferative activity against human KOPN-8 cells assessed as reduction in cell viability incubated for 72 hrs by resazurin dye based assay; conditions: KOPN-8, 72 h
ML-2 = assay: Antiproliferative activity against human ML-2 cells assessed as reduction in cell viability incubated for 72 hrs by resazurin dye based assay; conditions: ML-2, 72 h
RS4-11 = assay: Antiproliferative activity against human RS4-11 cells assessed as reduction in cell viability incubated for 72 hrs by resazurin dye based assay; conditions: RS4-11, 72 h

| SMILES | IC50 (MV4-11) | IC50 (K562) | IC50 (CCRF-CEM) | IC50 (KOPN-8) | IC50 (ML-2) | IC50 (RS4-11) |
| --- | --- | --- | --- | --- | --- | --- |
| COc1ccc(-c2c(C#N)c(-c3ccccc3)nc3c2c(-c2ccccc2)nn3-c2ccccc2)cc1OC | > 25 µM | > 25 µM | > 25 µM | – | – | – |
| N#Cc1c(-c2ccccc2)nc2c(c(-c3ccccc3)nn2-c2ccccc2)c1-c1ccc2c(c1)OCO2 | > 25 µM | 5.9 µM | > 25 µM | > 25 µM | > 25 µM | > 25 µM |
| COc1cc(-c2c(C#N)c(-c3cccs3)nc3c2c(-c2ccccc2)nn3-c2ccccc2)ccc1O | 44.2 µM | 15.4 µM | 37.3 µM | – | – | – |
| N#Cc1c(-c2cccs2)nc2c(c(-c3ccccc3)nn2-c2ccccc2)c1-c1ccc(O)cc1 | 34.2 µM | 11.6 µM | > 25 µM | – | – | – |

Source: ChEMBL document CHEMBL5131391, “One-pot three-component synthesis of novel pyrazolo[3,4-b]pyridines as potent antileukemic agents” (Eur J Med Chem, 2022)
